Experimental data: patent US20070212355A1 (priority 2005, published 2007)
One block for each compound: values may come before it.

How the values were obtained:
[1] = CD spectra secondary structure of peptides; assay type: physicochemical; settings: 0.2 mg/mL in PBS, 25° C.
Experimental: The secondary structures of tested peptides were determined using 0.2 mg/mL peptide solutions in PBS. Briefly, CD spectra were collected in triplicate at 1 nm intervals at 25° C. in 0.1 cm path length cell. Secondary structures were determined by fitting of the CD spectra using CD spectra software (CD Spectra Deconvolution software 2.1). All tested peptides contained peaks corresponding to the presence of alpha helices.

mutated human GLP-2R = molecular target: T1, mutated human GLP-2R (Homo sapiens, UniProt O95838, E512D/G511A/L513V); experiment: cAMP expression assay in HEK 293E clonal cell line expressing mutated human GLP-2R; assay type: cell-based; settings: assay set-up, vs control peptide
T1 construct: expressed in transfected cells; host or cells: HEK 293E clonal cell line
T1 sequence (O95838 1-553 G511A/E512D/L513V): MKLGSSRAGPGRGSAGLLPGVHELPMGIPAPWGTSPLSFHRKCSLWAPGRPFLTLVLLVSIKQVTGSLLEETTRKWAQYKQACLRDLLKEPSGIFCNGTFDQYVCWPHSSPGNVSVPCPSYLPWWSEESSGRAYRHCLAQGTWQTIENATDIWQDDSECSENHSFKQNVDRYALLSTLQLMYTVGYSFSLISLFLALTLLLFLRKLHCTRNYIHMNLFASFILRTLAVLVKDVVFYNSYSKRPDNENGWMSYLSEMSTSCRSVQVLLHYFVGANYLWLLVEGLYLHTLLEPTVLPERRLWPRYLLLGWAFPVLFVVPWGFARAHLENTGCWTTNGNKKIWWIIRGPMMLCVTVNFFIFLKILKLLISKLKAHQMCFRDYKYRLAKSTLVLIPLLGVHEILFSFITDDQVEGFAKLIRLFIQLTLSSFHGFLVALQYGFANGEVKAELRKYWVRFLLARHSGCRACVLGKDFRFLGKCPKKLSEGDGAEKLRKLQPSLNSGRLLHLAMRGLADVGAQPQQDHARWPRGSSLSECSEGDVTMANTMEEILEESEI
From the text: To achieve this goal, a clonal cell line expressing a mutated human GLP-2R was generated by transfecting HEK 293E cells. The mutated human GLP-2R differs from the wild-type human GLP-2R (SEQ ID NO: 35) at three amino acid positions within the C-terminal intracellular region (SEQ ID NO: 36).
The cAMP expression was quantitated using the cAMP Direct Screen System (Cat. No. CSD 200, Applied Biosystems, Bedford, Mass.).
This assay was based on the cAMP Direct Screen System from Applied Biosystems utilizing a cell line expressing mutated huGLP-2R in HEK 293E cells. Peptide at concentrations ranging from 0.01 nM to 1.0 uM in PBS with 0.5% BSA was added to ˜50,000 cells suspended in 96-well plates. After a 30-minute incubation at 37° C., Lysis Buffer followed by luminescence reagents (Applied Biosystems) was added according to the manufacturers' procedures (Applied Biosystems Luminescence protocol: cAMP-Screen Direct System). Luminescence was quantitated using a TopCount liquid scintillation analyzer (PerkinElmer), and data was processed using Softmax software (Molecular Devices Corporation).

[2] = Helical propensity analysis using TFE (CD at 222 nm); assay type: physicochemical; settings: 0.2 mg/mL in PBS (pH 7.5), MRE at 222 nm
Experimental: In addition, trifluoroethanol (TFE) is known to induce helix formation in peptides (Soennichsen et al., Biochemistry 31: 8791 (1992)). Accordingly, helical propensity analysis using TFE was performed. Briefly, tested peptides were diluted to 0.2 mg/mL in PBS (pH 7.5) containing 0, 1, 5, 15, 33 or 50% TFE. CD spectra were collected and CD plots were generated after data averaging, buffer subtraction and curve smoothing. Helical propensity values were obtained from mean residue ellipticity (MRE) at 222 nm versus % TFE plots. The concentration of TFE that effected a 50% transformation of the CD spectrum at 222 nm was used as a measure of helical propensity.

[3] = SEC-SLS self-association of peptides in PBS (pH 7.5); assay type: physicochemical
Experimental: The self-association poses a challenge to the development and manufacturing of a homogeneous therapeutic.
Solution molecular weight of the peptides was measured by SEC-SLS. Briefly, peptide solutions in PBS (pH 7.5) at 0.4 to 2.0 mg/mL were fractionated over a Superdex peptide column (Amersham Pharmacia). The eluted peaks were monitored by static light scattering at 690 nm and solution molecular weight was determined at UV 280 nm using the Astra software package (Wyatt Inc.).

[4] = humans; cited from earlier work
mice [5] = experiment: Upper gastrointestinal transit, FITC-dextran method, normal mice; assay type: in vivo; settings: for upper gastrointestinal transit (FITC-dextran): single 4 mg/kg dose 4 days prior, FIG. 4, 4 mg/kg
Experimental: On the day of study, upper gastrointestinal transit was measured using the FITC-dextran method. This method provides both, a measure of gastrointestinal transit and a readout of the pattern of distribution of the test meal along the gastrointestinal tract. Mice were fed a test meal of […] of FITC-dextran solution (5 mg/ml of 70,000 molecular weight dextran conjugated to fluorescein-isothiocyanate in 0.5% methylcellulose/deionized water) administered intragastrically by an 18 gauge curved feeding tube. Following oral administration of the FITC-dextran test meal, mice were returned to their home cages. It was shown that a 30 min test period was the optimum duration for detecting accelerated transit, while a 45 min test period was optimum for detecting delayed transit. Following the appropriate test period, mice were sacrificed by carbon dioxide exposure. The entire gastrointestinal tract from the lower esophageal sphincter to the terminal colon was removed. The bowel segments were opened along the mesenteric border. The tissue and luminal contents of the stomach, 10 equal segments of small intestine, the cecum, and 3 equal segments of colon were placed in individual Eppendorf tubes containing 1 ml of PBS. The tissue was vigorously mixed on a table-top vortex, and solid materials were pelleted by centrifugation. Aliquots of the cleared supernatant were read in duplicate on a 96-well fluorescence plate reader to quantify the magnitude of the fluorescent signal in each segment of bowel. These values were used to calculate the Geometric Center (GC), which is defined as the weighted average distribution of the fluorescent signal along the gastrointestinal tract: GC=Σ(% of total fluorescent signal per segment×segment number)/100. Higher values represent faster rates of transit on scale of 1 to 15. […] The mimetibody-induced shift in the distribution pattern of FITC-dextran is shown in the upper panel. […] The GC is calculated in the lower panel for statistical comparison.

[6] = Pharmacokinetics in cynomolgus monkeys, TRF assay; assay type: in vivo; settings: 1 mg/kg intravenously
From the text: (§1) A time resolved fluorescence (TRF) assay was used to measure active mimetibody. Active mimetibody reflects the intact N-terminus of the peptide still attached to the Fc region of the mimetibody.

CD1 mice = experiment: Mucosal wet weight of small intestine after 10 daily subcutaneous injections; assay type: in vivo
From the text: Afterwards, the mice were euthanized and the small intestines were removed, flushed with saline, and processed as described below.
(§2) Specifically, 4 cm sections were harvested: (1) immediately distal to the pylorus (duodenum), (2) starting 2 cm distal of the ligament of Treitz (jejunum), and (3) immediately proximal to the cecum (ileum). The remaining small intestine from ˜6 cm distal of the ligament of Treitz to 4 cm proximal to the cecum was used to prepare mucosal scrapings. From the proximal and distal ends of the remnant, an equal distance was removed until a 15 cm section remained, the remnant was cut longitudinally, rinsed, and the mucosal layer was removed using the short end of a glass microscope slide. The wet weight of the intact intestinal segments and mucosa was measured.

[7] = SEC-SLS analysis of mimetibodies (monomer/dimer); assay type: physicochemical; settings: purified from HEK 293E/HEK 293 expression
[8] = Pharmacokinetics in CD1 mice, TRF assay of active mimetibody; assay type: in vivo
From the text: Blood was collected at different time points into citrate buffer containing protease inhibitors to minimize the possibility of ex vivo degradation and plasma was separated by centrifugation.
as §1

mice [9] = experiment: Pharmacodynamics: dosing-regimen study, intestinal weights, 11 days; assay type: in vivo
From the text: as §2
The duration of the study was 11 days and tissue was processed as described in Example 4.

- Helix (percentage of helical structure) [1]: 19.6%
- Random coil (percentage) [1]: 37.9%
- stimulation of cAMP expression (mutated human GLP-2R): stimulated cAMP expression
- TFE required for helical transformation (helical propensity) [2]: ~16 % TFE
- self-association state ([3]; 0.4 mg/mL): monomer
- SEC-SLS elution / self-association state ([3]; 1 mg/ml): overlapping dimer and monomer peaks
- proportion of monomers ([3]; 2 mg/mL): about 20%
- proportion of reversibly self-associated dimer ([3]; 2 mg/mL): about 80%
Compound: CC[C@H](C)[C@H](NC(=O)[C@H](Cc1ccccc1)NC(=O)[C@H](CC(=O)O)NC(=O)[C@H](CCCNC(=N)N)NC(=O)[C@H](C)NC(=O)[C@H](C)NC(=O)[C@H](CC(C)C)NC(=O)[C@H](CC(N)=O)NC(=O)[C@H](CC(=O)O)NC(=O)[C@H](CC(C)C)NC(=O)[C@@H](NC(=O)[C@@H](NC(=O)[C@H](CC(N)=O)NC(=O)[C@H](CCSC)NC(=O)[C@H](CCC(=O)O)NC(=O)[C@H](CC(=O)O)NC(=O)[C@H](CO)NC(=O)[C@H](Cc1ccccc1)NC(=O)[C@H](CO)NC(=O)CNC(=O)[C@H](CC(=O)O)NC(=O)[C@H](C)NC(=O)[C@@H](N)Cc1c[nH]cn1)[C@@H](C)O)[C@@H](C)CC)C(=O)N[C@@H](CC(N)=O)C(=O)N[C@@H](Cc1c[nH]c2ccccc12)C(=O)N[C@@H](CC(C)C)C(=O)N[C@H](C(=O)N[C@@H](CCC(N)=O)C(=O)N[C@H](C(=O)N[C@@H](CCCCN)C(=O)N[C@H](C(=O)N[C@H](C(=O)N[C@@H](CC(=O)O)C(=O)O)[C@@H](C)O)[C@@H](C)CC)[C@@H](C)O)[C@@H](C)CC [SEQ ID NO: 1]
- reported half-life [4]: 7.2 ± 2 min

Compound: SEQ ID NO: 5: A2G GLP-2 IgG4 mimetibody; core HGDGSFSDEMNTILDNLAARDFINWLIQTKITDGSGGGSGTLVTVSSESKYGPPCPPCP
- upper gastrointestinal transit (FITC-dextran) (mice [5]; listed as A2G GLP-2 mimetibody): significant acceleration of intestinal transit
- upper gastrointestinal transit (FITC-dextran) (mice [5]; listed as GLP-2 mimetibody): acceleration of upper gastrointestinal transit
- Geometric Center (GC) of FITC-dextran (mice [5]; single injection 4 days prior, 30 minute test, scale 1 to 15, normal mice GC=6): 7.5
- calculated half-life [6]: 115 h
- increase in mucosal wet weight vs control mimetibody (CD1 mice; 0.8 mg/kg (0.26 nmole) daily s.c. 10 days, p<0.0001): statistically significant
- increase in mucosal wet weight vs control mimetibody (CD1 mice; 8 mg/kg (2.6 nmole) daily s.c. 10 days, p<0.0004): statistically significant
- mucosal wet weight (15 cm segment between jejunum and ileum), dose response (CD1 mice; daily s.c. 10 days, female CD1 mice, FIG. 2): dose dependent increase
- effective in vivo dose lower than that of A2G GLP-2 peptide (molar basis) (CD1 mice; mucosal weight model): 50 fold
- SEC-SLS association state of mimetibody [7]: dimer
- calculated half-life ([8]; CD1 mice, 3 mg/kg intravenously or subcutaneously, TRF): 26.5 h
- half-life relative to GLP-2 peptide ([8]; mimetibody in mice vs reported GLP-2 peptide in humans): more than 200 fold
- mucosal weight difference to control mimetibody (mice [9]; 4 mg/kg every day or every other day, 11 day study, compared with once per week): more pronounced
- mucosal weight compared to control mimetibody (mice [9]; 4 mg/kg once per week, 11 day study): significantly increased mucosal weight
- duodenum and jejunum section wet weight over control mimetibody (mice [9]; 4 mg/kg, all regimens except for the single dose experiment): significant increase in weight
